The text below walks through data of patent EP0725068A1 (TOKYO TANABE COMPANY LIMITED, priority 1993, dated 1995).

One experiment deals with T1, colonic 5-HT3 receptors (Cavia porcellus, UniProt O70212).
T1 construct: the distal colons (3-10 cm from the anus) were isolated and suspended in a Magnus tube filled with Krebs solution; from tissue; host or cells: isolated distal colon of male Hartley guinea pig
T1 sequence (O70212 20-490): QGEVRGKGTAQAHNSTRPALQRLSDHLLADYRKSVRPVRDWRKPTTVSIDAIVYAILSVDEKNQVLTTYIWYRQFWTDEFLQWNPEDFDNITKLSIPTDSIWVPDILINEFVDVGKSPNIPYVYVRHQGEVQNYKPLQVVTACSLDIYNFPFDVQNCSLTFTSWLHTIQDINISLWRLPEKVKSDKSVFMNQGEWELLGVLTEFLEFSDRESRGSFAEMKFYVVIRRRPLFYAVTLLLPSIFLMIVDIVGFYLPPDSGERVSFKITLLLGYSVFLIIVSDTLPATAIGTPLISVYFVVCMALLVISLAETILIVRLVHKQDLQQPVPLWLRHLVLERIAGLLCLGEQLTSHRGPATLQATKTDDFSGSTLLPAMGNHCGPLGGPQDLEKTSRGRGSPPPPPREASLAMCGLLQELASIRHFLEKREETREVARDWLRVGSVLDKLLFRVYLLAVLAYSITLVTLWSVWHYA
Nature of the experiment: Colonic 5-HT3 receptor antagonism: inhibition of 2-methylserotonin-induced contraction of isolated distal colon (Test 1). The class given is biochemical, guinea pigs. The following applies: for M (×10^-9 Mole): molar antagonist concentration corresponding to pA2, guinea pig distal colon, 2-methylserotonin; for Kb: pA2, isolated guinea pig distal colon.

The test system of a further experiment is stress-related diarrhea. Particulars: animal models; J. Pharmacol. Exp. Ther. 261, 297 (1992); cited from earlier work.
The target of another experiment is T2, cardiac 5-HT3 receptors (Rattus norvegicus, UniProt P35563).
T2 construct: from tissue; host or cells: whole anaesthetised male SD rat (in vivo)
T2 sequence (P35563 24-483): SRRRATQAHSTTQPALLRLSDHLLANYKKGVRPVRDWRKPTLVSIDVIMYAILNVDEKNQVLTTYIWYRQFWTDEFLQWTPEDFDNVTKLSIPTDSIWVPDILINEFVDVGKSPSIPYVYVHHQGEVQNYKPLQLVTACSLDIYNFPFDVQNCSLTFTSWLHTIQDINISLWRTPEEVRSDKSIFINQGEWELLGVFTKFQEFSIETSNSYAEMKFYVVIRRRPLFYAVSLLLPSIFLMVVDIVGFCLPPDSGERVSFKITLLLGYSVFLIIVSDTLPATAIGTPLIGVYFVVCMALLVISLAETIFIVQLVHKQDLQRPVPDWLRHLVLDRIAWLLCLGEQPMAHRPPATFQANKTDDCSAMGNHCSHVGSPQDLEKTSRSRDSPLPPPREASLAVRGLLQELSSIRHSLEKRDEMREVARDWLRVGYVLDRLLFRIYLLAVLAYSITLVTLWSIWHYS
Nature of the experiment: Antagonism against von Bezold-Jarisch reflex (BJ reflex): serotonin-induced reflexive bradycardia (Test 2). It is filed as in vivo, SD rats. Particulars: for ED50: rat, intravenous, 5 minutes prior to 30 µg/kg serotonin i.v., anesthetized male SD rats, read-out: ID50 (the source's name). The procedure:
This test was conducted following the method of Fozard, at al. (Arch. Pharmacology, 326, 36-44, 1984). Male SD rats with a body weight of around 300 g were anesthetized by intraabdominal administration of 1.25 g/kg urethane, and an intravenous injection cannula was inserted in the right femoral vein while a sphygmomanometric cannula was inserted into the left femoral artery. The pulse was determined by measuring the electrocardiogram R waves (secondary induction) with an instantaneous pulse rate meter. After confirming satisfactory reproducibility of the reflexive bradycardia induced by intravenous administration of 30 µg/kg serotonin, the test compounds were intravenously administered 5 minutes prior to serotonin administration, the inhibition rates with respect to the initial values were found and the 50% inhibition doses (ID50) were calculated.

The subject of experiment [1] is restraint stress-induced diarrhea. The experiment is described as follows: Inhibiting effect on restraint stress-induced diarrhea, oral administration (Test 3). The class given is in vivo, Wistar rats. The following applies: for No. of animals with diarrhea / No. of animals used: feces observed 5 hours; for inhibition at 0.01 mg/kg: Rattus norvegicus, po, 1 h, read-out: Inhibition rate. The procedure: This test was conducted following the method of Miyata, et al. (The Journal of Pharmacology and Experimental Therapeutics Vol.261, No.1, 297 (1992)). Nine to ten-week-old male Wistar rats starved overnight were placed in stress cages and their feces produced in 5 hours were observed. Of 15 rats, 14 developed diarrhea. The test compounds were administered orally one hour prior to placement in the stress cage, and the rate of inhibition on diarrhea was measured.

Where [2] appears, read: contraction induced by 2-methylserotonin.
Where [3] appears, read: 10μg/kg orally one hour prior to stress cage.

SMILES strings stand for the structures. Where a name gives a salt, the structure may show the parent alone. Read-outs that look alike come from different tables or passages of the source.

In general, Kb refers to the affinity of an antagonist, worked out from how it opposes an agonist. Regarding `O=C1c2c(n3c4c(cccc24)CCC3)CCN1C1CN2CCC1CC2` (stereo not drawn) [I, 10-(1-azabicyclo-[2,2,2]oct-3-yl)-5,6,8,9,10,11-hexahydro-4H-pyrido[3',4':4,5]pyrrolo[3,2,1-ij]quinolin-11-one], the “M (×10^-9 Mole)” value at colonic 5-HT3 receptors is reported as >10 ×10^-9 Mole. The compound also yielded a Kb on colonic 5-HT3 receptors (setting [2]) greater than 10 nM.

Take `Cc1[nH]cnc1CN1CCc2c(c3cccc4c3n2-c2ccccc2CC4)C1=O` [G, 3-[(4-methyl-1-H-imidazol-5-yl)methyl]-1,2,3,4,8,9-hexahydro-pyrido[4',3':2,3]indolo[1,7a,7-ab][1]benzazepin-4-one]: on colonic 5-HT3 receptors, the “M (×10^-9 Mole)” value is >10 ×10^-9 Mole. Besides, the Kb on colonic 5-HT3 receptors (setting [2]) was greater than 10 nM.

For `Cc1nccn1CC1CCc2c(c3ccccc3n2C)C1=O` (stereo not drawn) [Ondansetron hydrochloride, 1,2,3,4-tetrahydro-9-methyl-3-[(2-methyl-1H-imidazol-1-yl)methyl]-4H-carbazol-4-one hydrochloride dihydrate], the “M (×10^-9 Mole)” value at colonic 5-HT3 receptors was 227 ×10^-9 Mole. The compound further had a Kb at colonic 5-HT3 receptors (setting [2]) of 251 nM. Moreover, the “suppression of stress-related diarrhea” value in the experiment on stress-related diarrhea is recorded as “suppress stress-related diarrhea in animal models”. Further, on cardiac 5-HT3 receptors, the ED50 is 2 µg/kg.

`Cc1[nH]cnc1CN1CCCc2c(c3cccc4c3n2CCC4)C1=O` [F, 11-[(5-methyl-1H-imidazol-4-yl)methyl]-5,6,9,10,11,12-hexahydro-4H,8H-azepino[3',4':4,5]pyrrolo[3,2,1-ij]quinolin-12-one]: at colonic 5-HT3 receptors, the “M (×10^-9 Mole)” value is >10 ×10^-9 Mole. On colonic 5-HT3 receptors (setting [2]), the Kb was greater than 10 nM.

What is called inhibition is the change of the read-out against control, counted positive when it falls. With `Cc1[nH]cnc1CN1CCc2c(c3cccc4c3n2C(c2ccccc2)CC4)C1=O.Cl` (stereo not drawn) [Compound 1, 5,6,8,9,10,11-hexahydro-10-[(5-methyl-1H-imidazol-4-yl)methyl]-6-phenyl-11-oxo-4H-pyrido[3',4':4,5]pyrrolo[3,2,1-ij] quinoline hydrochloride], at colonic 5-HT3 receptors (from Tests 1 and 2 (colon vs heart), vs Allosetron), the “selectivity for colonic 5-HT3 receptors relative to Allosetron” value was “about 90 times”. The “selectivity for colonic 5-HT3 receptors relative to Ondansetron” value at colonic 5-HT3 receptors (from Tests 1 and 2 (colon vs heart), vs Ondansetron) was “about 125 times”. Besides, at colonic 5-HT3 receptors (from Tests 1 and 2 (colon vs heart), vs YM-060), the “selectivity for colonic 5-HT3 receptors relative to YM-060” value is given as “about 190 times”. The “selectivity for colonic 5-HT3 receptors relative to compound A” value on colonic 5-HT3 receptors (from Tests 1 and 2 (colon vs heart), vs compound A) was “about 100 times”. Also, the “M (×10^-9 Mole)” value at colonic 5-HT3 receptors is reported as 0.41 ×10^-9 Mole. At colonic 5-HT3 receptors (setting [2]), this compound showed a Kb of 0.398 nM. Besides, in experiment [1] (setting [3]), the “No. of animals with diarrhea / No. of animals used” value is on record as 5/10. For the same compound, the inhibition at 0.01 mg/kg in experiment [1] is 50%. Moreover, the “activity on the heart receptors relative to Ondansetron” value at cardiac 5-HT3 receptors (BJ reflex ID50 ratio, vs Ondansetron) was “about 4 times”. Moreover, at cardiac 5-HT3 receptors (BJ reflex ID50 ratio, vs YM-060), the “activity on the heart receptors relative to YM-060” value is recorded as “about 1/19”. For the same compound, the ED50 on cardiac 5-HT3 receptors came out at 0.5 µg/kg.

`Cc1[nH]cnc1CN1CCc2c(c3cccc4c3n2CC4)C1=O` [B, 4,5,7,8-tetrahydro-9-[(5-methyl-1H-imidazol-4-yl)methyl]-pyrido[4,3-b]pyrrolo[3,2,1-hi]indol-10(9H)-one]: the “M (×10^-9 Mole)” value at colonic 5-HT3 receptors is reported as 10 ×10^-9 Mole. This compound also displayed a Kb on colonic 5-HT3 receptors (setting [2]) greater than 10 nM.

Consider `CN1C2CCC1CC(N1CCc3c(c4cccc5c4n3CCC5)C1=O)C2` (stereo not drawn) [H], for which the “M (×10^-9 Mole)” value at colonic 5-HT3 receptors is >10 ×10^-9 Mole. This compound also had a Kb at colonic 5-HT3 receptors (setting [2]) greater than 10 nM.

Turning to `Cc1[nH]cnc1CN1CCc2c(c3cccc4c3n2CCO4)C1=O` [C, 1,2,9,10-tetrahydro-8-[(5-methyl-1H-imidazol-4-yl)methyl]pyrido[3',4':4,5]pyrrolo[1,2,3-de][1,4]benzoxadin-7(8H)-one], on colonic 5-HT3 receptors, the “M (×10^-9 Mole)” value is >10 ×10^-9 Mole. This compound came in with a Kb on colonic 5-HT3 receptors (setting [2]) greater than 10 nM.

On to `Cc1[nH]cnc1CN1CCc2c(c3cccc4c3n2CCC4)C1=O` [A, 5,6,9,10-tetrahydro-10-[(5-methyl-1H-imidazol-4-yl)methyl]-4H-pyrido[3',4':4,5]pyrrolo[3,2,1-ij] quinolin-11(8H)-one], for which the “M (×10^-9 Mole)” value on colonic 5-HT3 receptors is 10 ×10^-9 Mole. Besides, at colonic 5-HT3 receptors (setting [2]), the Kb was 10 nM. The “No. of animals with diarrhea / No. of animals used” value in experiment [1] (setting [3]) is recorded as 8/10. Besides, in experiment [1], the inhibition at 0.01 mg/kg is 20%. At cardiac 5-HT3 receptors, the ED50 was 0.11 µg/kg.

For `Cc1[nH]cnc1CN1CCc2c(c3ccccc3n2C)C1=O.Cl` [Allosetron hydrochloride, 2,3,4,5-tetrahydro-5-methyl-2-[(5-methyl-1H-imidazol-4-yl)methyl]-1H-pyrido[4,3-b]indol-1-one hydrochloride], the “M (×10^-9 Mole)” value on colonic 5-HT3 receptors is listed as 21 ×10^-9 Mole. The Kb at colonic 5-HT3 receptors (setting [2]) is 20 nM. Also, the ED50 at cardiac 5-HT3 receptors was found to be 0.28 µg/kg.

On to `Cc1[nH]cnc1CN1CCCc2c(c3cccc4c3n2CC4)C1=O` [D, 4,5,7,8,9,10-hexahydro-10-[(5-methyl-1H-imidazol-4-yl)methyl]-11H-azepino[4,3-b]pyrrolo[3,2,1-hi]indol-11-one], for which the “M (×10^-9 Mole)” value at colonic 5-HT3 receptors is given as >10 ×10^-9 Mole. The compound also had a Kb on colonic 5-HT3 receptors (setting [2]) greater than 10 nM.

Consider `CN1C2CCCC1CC(NC(=O)c1nn(C)c3ccccc13)C2` (stereo not drawn) [Granisetron, N-(endo-9-methyl-9-azabicyclo[3,3,1]non-3-yl)-1-methylindazol-3-carboxamide hydrochloride], for which, in the experiment with stress-related diarrhea, the “suppression of stress-related diarrhea” value is on record as “suppress stress-related diarrhea in animal models”.

The pA2 is the negative logarithm of the molar antagonist concentration that doubles the agonist concentration needed for the same response. The low end stands for lower antagonist potency, the high end for higher antagonist potency. `Cc1[nH]cnc1CN1CCc2c(c3cccc4c3n2CCCC4)C1=O` [E] had a pA2 on colonic 5-HT3 receptors (isolated guinea pig distal colon, contraction induced by 2-methylserotonin) of less than 8.0. In addition, the “M (×10^-9 Mole)” value on colonic 5-HT3 receptors is given as >10 ×10^-9 Mole.

Turning to `Cl.Cn1cc(C(=O)[C@@H]2CCc3nc[nH]c3C2)c2ccccc21` [YM-060, (R)-(-)-5-[(1-methylindol-3-yl)carbonyl]-4,5,6,7-tetrahydrobenzimidazole hydrochloride], on colonic 5-HT3 receptors, the “M (×10^-9 Mole)” value is given as 4.5 ×10^-9 Mole. For the same compound, on colonic 5-HT3 receptors (setting [2]), the Kb was 3.98 nM. Besides, in experiment [1] (setting [3]), the “No. of animals with diarrhea / No. of animals used” value is 7/10. Besides, the inhibition at 0.01 mg/kg in experiment [1] (10μg/kg orally one hour prior to stress cage, inhibition of diarrhea) was found to be 30%. For the same compound, the “suppression of stress-related diarrhea” value in the experiment with stress-related diarrhea was “suppress stress-related diarrhea in animal models”.
